Where “and” joins values, the source holds several entries; their conditions need not be identical. Identical values can stand only once. Toxic doses and inconclusive results are not listed.
Tested on: CD2F1 mice, L1210 leukemia ip, survival T/C
Assay: NCI In Vivo Anticancer Drug Screen. Data for tumor model L1210 Leukemia (intraperitoneal) in CD2F1 (CDF1) mice
Details: higher = longer survival
Procedure, shortened: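 Read-out first: treated-group measurement over vehicle-control measurement, expressed as a ratio. Animals bore a transplanted tumor line and were dosed with compound or vehicle.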

Compound: COc1cccc2c1C(=O)c1c(O)c3c(c(O)c1C2=O)C[C@@](O)(C(C)=O)C[C@@H]3OC1CC(N)C(O)C(C)O1 (stereo partly specified)
- T/C (endpoint: mean survival time, dose: 0.06 mg/kg/injection, schedule: Q01DX009 (ip), vehicle: saline): 103 % of control
- T/C (endpoint: mean survival time, dose: 0.13 mg/kg/injection, schedule: Q01DX009 (ip), vehicle: saline): 103 % of control
- T/C (endpoint: mean survival time, dose: 0.2 mg/kg/injection, schedule: Q01DX009 (ip), vehicle: saline): 105 % of control
- T/C (endpoint: mean survival time, dose: 0.2 mg/kg/injection, schedule: Q01DX009 (ip), vehicle: water): 100 % of control and 103 % of control and 108 % of control
- T/C (endpoint: mean survival time, dose: 0.25 mg/kg/injection, schedule: Q01DX005 (ip), vehicle: water): 101 % of control
- T/C (endpoint: mean survival time, dose: 0.25 mg/kg/injection, schedule: Q01DX009 (ip), vehicle: saline): 113 % of control and 120 % of control and 105 % of control
- T/C (endpoint: mean survival time, dose: 0.39 mg/kg/injection, schedule: Q01DX009 (ip), vehicle: saline): 119 % of control and 106 % of control
- T/C (endpoint: mean survival time, dose: 0.39 mg/kg/injection, schedule: Q01DX009 (ip), vehicle: water): 101 % of control and 110 % of control and 112 % of control
- T/C (endpoint: mean survival time, dose: 0.5 mg/kg/injection, schedule: Q01DX005 (ip), vehicle: water): 117 % of control and 108 % of control and 110 % of control
- T/C (endpoint: mean survival time, dose: 0.5 mg/kg/injection, schedule: Q04DX003 (ip), vehicle: water): 116 % of control and 98 % of control
- T/C (endpoint: mean survival time, dose: 0.78 mg/kg/injection, schedule: Q01DX009 (ip), vehicle: saline): 116 % of control
- T/C (endpoint: mean survival time, dose: 0.78 mg/kg/injection, schedule: Q01DX009 (ip), vehicle: water): 117 % of control and 120 % of control and 103 % of control
- T/C (endpoint: mean survival time, dose: 1.0 mg/kg/injection, schedule: Q01DX005 (ip), vehicle: water): 118 % of control and 112 % of control
- T/C (endpoint: mean survival time, dose: 1.0 mg/kg/injection, schedule: Q03DX003 (ip), vehicle: saline): 119 % of control
- T/C (endpoint: mean survival time, dose: 1.0 mg/kg/injection, schedule: Q04DX003 (ip), vehicle: water): 105 % of control
- T/C (endpoint: mean survival time, dose: 1.08 mg/kg/injection, schedule: Q04DX003 (ip), vehicle: saline): 120 % of control
- T/C (endpoint: mean survival time, dose: 1.25 mg/kg/injection, schedule: Q07DX Z (oral), vehicle: clinical formulation): 97 % of control
- T/C (endpoint: mean survival time, dose: 1.25 mg/kg/injection, schedule: Q#B X Z (oral), vehicle: clinical formulation): 102 % of control
- T/C (endpoint: mean survival time, dose: 1.56 mg/kg/injection, schedule: Q01DX009 (ip), vehicle: saline): 117 % of control
- T/C (endpoint: mean survival time, dose: 1.56 mg/kg/injection, schedule: Q01DX009 (ip), vehicle: water): 121 % of control and 106 % of control
- T/C (endpoint: mean survival time, dose: 1.68 mg/kg/injection, schedule: Q01DX001 (ip), vehicle: water): 124 % of control
- T/C (endpoint: mean survival time, dose: 1.8 mg/kg/injection, schedule: Q04DX003 (ip), vehicle: saline): 120 % of control
- T/C (endpoint: mean survival time, dose: 2.0 mg/kg/injection, schedule: Q01DX005 (ip), vehicle: water): 121 % of control and 124 % of control
- T/C (endpoint: mean survival time, dose: 2.0 mg/kg/injection, schedule: Q03DX003 (ip), vehicle: saline): 122 % of control
- T/C (endpoint: mean survival time, dose: 2.0 mg/kg/injection, schedule: Q04DX003 (ip), vehicle: water): 123 % of control and 102 % of control
- T/C (endpoint: mean survival time, dose: 2.5 mg/kg/injection, schedule: Q01DX001 (ip), vehicle: water): 118 % of control and 123 % of control and 112 % of control
- T/C (endpoint: mean survival time, dose: 2.5 mg/kg/injection, schedule: Q07DX Z (oral), vehicle: clinical formulation): 97 % of control
- T/C (endpoint: mean survival time, dose: 2.5 mg/kg/injection, schedule: Q#B X Z (oral), vehicle: clinical formulation): 94 % of control
- T/C (endpoint: mean survival time, dose: 3.0 mg/kg/injection, schedule: Q01DX009 (ip), vehicle: saline): 117 % of control
- T/C (endpoint: mean survival time, dose: 3.0 mg/kg/injection, schedule: Q04DX003 (ip), vehicle: saline): 115 % of control
- T/C (endpoint: mean survival time, dose: 3.13 mg/kg/injection, schedule: Q01DX009 (ip), vehicle: water): 117 % of control and 96 % of control
- T/C (endpoint: mean survival time, dose: 4.0 mg/kg/injection, schedule: Q01DX005 (ip), vehicle: water): 120 % of control and 105 % of control
- T/C (endpoint: mean survival time, dose: 4.0 mg/kg/injection, schedule: Q01DX007 (ip), vehicle: saline): 110 % of control
- T/C (endpoint: mean survival time, dose: 4.0 mg/kg/injection, schedule: Q03DX003 (ip), vehicle: saline): 116 % of control
- T/C (endpoint: mean survival time, dose: 4.0 mg/kg/injection, schedule: Q04DX003 (ip), vehicle: water): 100 % of control
- T/C (endpoint: mean survival time, dose: 4.67 mg/kg/injection, schedule: Q01DX009 (ip), vehicle: water): 108 % of control
- T/C (endpoint: mean survival time, dose: 5.0 mg/kg/injection, schedule: Q01DX001 (ip), vehicle: water): 120 % of control and 104 % of control
- T/C (endpoint: mean survival time, dose: 5.0 mg/kg/injection, schedule: Q04DX003 (ip), vehicle: saline): 120 % of control
- T/C (endpoint: mean survival time, dose: 5.0 mg/kg/injection, schedule: Q07DX Z (oral), vehicle: clinical formulation): 97 % of control
- T/C (endpoint: mean survival time, dose: 5.0 mg/kg/injection, schedule: Q#B X Z (oral), vehicle: clinical formulation): 97 % of control
- T/C (endpoint: mean survival time, dose: 6.25 mg/kg/injection, schedule: Q01DX009 (ip), vehicle: saline): 97 % of control
- T/C (endpoint: mean survival time, dose: 8.0 mg/kg/injection, schedule: Q01DX001 (ip), vehicle: water): 109 % of control
- T/C (endpoint: mean survival time, dose: 8.0 mg/kg/injection, schedule: Q01DX009 (ip), vehicle: saline): 100 % of control
- T/C (endpoint: mean survival time, dose: 8.0 mg/kg/injection, schedule: Q04DX003 (ip), vehicle: saline): 119 % of control
- T/C (endpoint: mean survival time, dose: 8.0 mg/kg/injection, schedule: Q04DX003 (ip), vehicle: water): 123 % of control
- T/C (endpoint: mean survival time, dose: 10.0 mg/kg/injection, schedule: Q01DX001 (ip), vehicle: water): 118 % of control and 112 % of control
- T/C (endpoint: mean survival time, dose: 10.0 mg/kg/injection, schedule: Q07DX Z (oral), vehicle: clinical formulation): 102 % of control
- T/C (endpoint: mean survival time, dose: 10.0 mg/kg/injection, schedule: Q#B X Z (oral), vehicle: clinical formulation): 108 % of control
- T/C (endpoint: mean survival time, dose: 20.0 mg/kg/injection, schedule: Q01DX001 (ip), vehicle: water): 89 % of control and 96 % of control
- T/C (endpoint: mean survival time, dose: 20.0 mg/kg/injection, schedule: Q07DX Z (oral), vehicle: clinical formulation): 100 % of control
- T/C (endpoint: mean survival time, dose: 20.0 mg/kg/injection, schedule: Q#B X Z (oral), vehicle: clinical formulation): 94 % of control
- T/C (endpoint: mean survival time, dose: 40.0 mg/kg/injection, schedule: Q01DX001 (ip), vehicle: saline): 62 % of control
- T/C (endpoint: mean survival time, dose: 40.0 mg/kg/injection, schedule: Q07DX Z (oral), vehicle: clinical formulation): 103 % of control
- T/C (endpoint: mean survival time, dose: 40.0 mg/kg/injection, schedule: Q#B X Z (oral), vehicle: clinical formulation): 103 % of control
- T/C (endpoint: mean survival time, dose: 39.0 micrograms/kg/injection, schedule: Q01DX010 (oral), vehicle: saline): 102 % of control
- T/C (endpoint: mean survival time, dose: 78.0 micrograms/kg/injection, schedule: Q01DX010 (oral), vehicle: saline): 102 % of control
- T/C (endpoint: mean survival time, dose: 156.0 micrograms/kg/injection, schedule: Q01DX010 (oral), vehicle: saline): 98 % of control
- T/C (endpoint: mean survival time, dose: 313.0 micrograms/kg/injection, schedule: Q01DX010 (oral), vehicle: saline): 102 % of control
- T/C (endpoint: mean survival time, dose: 625.0 micrograms/kg/injection, schedule: Q01DX010 (oral), vehicle: saline): 104 % of control
- T/C (endpoint: mean survival time, dose: 1250.0 micrograms/kg/injection, schedule: Q01DX010 (oral), vehicle: saline): 101 % of control
- T/C (endpoint: median survival time, dose: 0.25 mg/kg/injection, schedule: Q01DX005 (iv), vehicle: water): 112 % of control
- T/C (endpoint: median survival time, dose: 0.5 mg/kg/injection, schedule: Q01DX005 (iv), vehicle: water): 100 % of control
- T/C (endpoint: median survival time, dose: 0.5 mg/kg/injection, schedule: Q04DX003 (ip), vehicle: water): 99 % of control
- T/C (endpoint: median survival time, dose: 1.0 mg/kg/injection, schedule: Q01DX005 (iv), vehicle: water): 106 % of control
- T/C (endpoint: median survival time, dose: 1.0 mg/kg/injection, schedule: Q04DX003 (ip), vehicle: water): 99 % of control
- T/C (endpoint: median survival time, dose: 2.0 mg/kg/injection, schedule: Q01DX005 (iv), vehicle: water): 112 % of control
- T/C (endpoint: median survival time, dose: 2.0 mg/kg/injection, schedule: Q04DX003 (ip), vehicle: water): 100 % of control
- T/C (endpoint: median survival time, dose: 4.0 mg/kg/injection, schedule: Q04DX003 (ip), vehicle: water): 107 % of control
- T/C (endpoint: median survival time, dose: 16.0 mg/kg/injection, schedule: Q04DX003 (ip), vehicle: water): 109 % of control

Compound: Cc1cc(NCCCCCCNc2cc(C)nc3cc(N(C)C)ccc23)c2ccc(N(C)C)cc2n1
- T/C (endpoint: median survival time, dose: 3.12 mg/kg/injection, schedule: Q01DX009 (ip), vehicle: distilled water + Tween-80 + alcohol): 121 % of control
- T/C (endpoint: median survival time, dose: 25.0 mg/kg/injection, schedule: Q01DX009 (ip), vehicle: distilled water + Tween-80 + alcohol): 152 % of control and 158 % of control

Compound: O=C(COc1ccccc1)NC(=S)Nc1ccc(Cl)c(Cl)c1
- T/C (endpoint: mean survival time, dose: 25.0 mg/kg/injection, schedule: Q04DX002 (ip), vehicle: saline with Tween-80): 97 % of control and 105 % of control
- T/C (endpoint: mean survival time, dose: 50.0 mg/kg/injection, schedule: Q01DX001 (ip), vehicle: saline with Tween-80): 101 % of control
- T/C (endpoint: mean survival time, dose: 50.0 mg/kg/injection, schedule: Q01DX009 (ip), vehicle: saline with Tween-80): 98 % of control and 102 % of control
- T/C (endpoint: mean survival time, dose: 50.0 mg/kg/injection, schedule: Q04DX003 (ip), vehicle: saline with Tween-80): 98 % of control
- T/C (endpoint: mean survival time, dose: 100.0 mg/kg/injection, schedule: Q01DX001 (ip), vehicle: saline with Tween-80): 101 % of control
- T/C (endpoint: mean survival time, dose: 100.0 mg/kg/injection, schedule: Q01DX009 (ip), vehicle: saline with Tween-80): 98 % of control and 106 % of control
- T/C (endpoint: mean survival time, dose: 100.0 mg/kg/injection, schedule: Q04DX003 (ip), vehicle: saline with Tween-80): 96 % of control
- T/C (endpoint: mean survival time, dose: 200.0 mg/kg/injection, schedule: Q01DX001 (ip), vehicle: saline with Tween-80): 95 % of control
- T/C (endpoint: mean survival time, dose: 200.0 mg/kg/injection, schedule: Q01DX009 (ip), vehicle: saline with Tween-80): 93 % of control and 96 % of control
- T/C (endpoint: mean survival time, dose: 200.0 mg/kg/injection, schedule: Q04DX003 (ip), vehicle: saline with Tween-80): 98 % of control
